From patent publication US20230293535A1, “ERBB/BTK INHIBITORS” (Dizal (Jiangsu) Pharmaceutical Co., Ltd., priority 2018, published 2023)

Assays:
WT EGFR cell line A-431 = assay: Cell proliferation, WT EGFR A431 (CellTiter-Glo, 72 h); assay type: cell-based; conditions: Homo sapiens, A-431, 72 h, read-out: EGFR WT A431 GI50 (nM);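 note: proliferation from a luminescent ATP viability signal, expressed as 100 × (treated minus time-zero plate) over (DMSO control minus time-zero plate), cells grown with 10% FBS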
Method: WT or mutant cells were seeded in 384 well plates at appropriate concentrations with corresponding growth media supplemented with 10% FBS, for each experiment, identical plates were prepared in duplicates, and the plates were incubated overnight. On the next day, one of each duplicated plates was dosed with tested compounds at a series of concentrations, and another one of the duplicated plate was analysied for G0 value. The dosed plates were incubate for another 72 h at 37° C. with 5% CO2 and the number of viable cells in each well of the G0 plates or the dosed plates were measured by CellTiter-Glo® Luminescent Cell Viability Assay (Promega). This assay is a luminescent method for determining the number viable cells through measurement of cellular ATP concentration by detection of luciferase activity. Detection reagents (15 µl) was dispensed into per well, and the plates were incubate for 30 min at room temperature. Then, the luminescence in each well was measured using the Envision plate reader (PerkinElmer). The percentage of proliferation was calculated based on the formula: %Proliferation= 100 × (G3 value of sample well-Go value)/(G3 value of DMSO control-Go value).

[1] = system: NCI-H1975 EGFR L858R/T790M cells; assay: Cell proliferation, NCI-H1975 EGFR L858R/T790M (CellTiter-Glo, 72 h); assay type: cell-based; conditions: Homo sapiens, NCI-H1975, 72 h, read-out: EGFR L858R and T790M mutation GI50 (nM);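 note: viable cells quantified by luciferase-based ATP luminescence, proliferation expressed relative to DMSO-treated wells (100%) after subtracting a parallel plate read at the time of dosing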
Ba/F3 EGFR NPH ins cells = assay: Cell proliferation, Ba/F3 EGFR NPH ins (CellTiter-Glo, 72 h); assay type: cell-based; conditions: Ba/F3 EGFR, 72 h, read-out: EGFR Exon20 NPH insertion GI50 (nM);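 note: IL3-independent cells carrying constitutively phosphorylated EGFR, compound dilution series, viable cells quantified by ATP luminescence, growth relative to DMSO wells after subtracting pre-dosing (day 0) baseline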
in vitro [2] = conditions: male, rat, hepatocytes, rat hepatocytes Clint (µL/min/10^6cells)
EGFR L858R&T790M = molecular target: T1, EGFR L858R&T790M (Homo sapiens, UniProt P00533, L858R/T790M); assay: EGFR L858R and T790M cellular phosphorylation inhibition in NCI-H1975 (MSD); assay type: cell-based; conditions: NCI-H1975 cells, 4 h compound, p-EGFR(Y1068)/total EGFR; read-out: EGFR L858R and T790M mutation IC50;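 note: phosphorylated and total EGFR detected by electrochemiluminescence, cells exposed to compound in medium containing 1% FBS at 37 °C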
T1 construct: host or cells: NCI-H1975

TMD-8 cells = assay: BTK (wt) cell proliferation, TMD-8 (CellTiter-Glo, 72 h); assay type: cell-based; conditions: Homo sapiens, TMD8, 72 h, read-out: BTK WT TMD-8 GI50;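 note: viable cells quantified by ATP-based luminescence, proliferation expressed as percent of DMSO control after subtracting a time-zero baseline plate read at dosing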
Method: OCI-LY-10 at 3,750 cells/well, TMD-8 and Ri-1 at 2,000 cells/well, and DB at 1,250 cells/well, respectively, were sorted into 384-well plates in RPMI1640 medium with 10% FBS. After overnight incubation, all cells were incubated with compound at a series of concentrations. Meanwhile, a duplicated plate of each cell line was prepared for measuring G0 value. The dosed plates were further incubated for 72 hours and the number of viable cells was measured by CellTiter-Glo® Luminescent Cell Viability Assay (Promega), a luminescent method for determining the number of viable cells through measurement of cellular ATP concentration using Envision plate reader (PerkinElmer). The percentage of proliferation was calculated as: % Proliferation = 100 × (G3 value of sample well - G0 value)/(G3 value of DMSO control - G0 value).

[3] = molecular target: T2, human Her2 exon 20 insertion mutation YVMA (Homo sapiens, UniProt P04626, INS775YVMA); assay: Her2 Exon 20 YVMA insertion cellular phosphorylation inhibition (MSD p-Her2 Y1248/total Her2); assay type: cell-based; conditions: Her2 YVMAins cells, 4 h compound;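 note: lentivirally transduced NIH-3T3 cells in 1% FBS medium, electrochemiluminescent MSD read-out, graded compound concentrations at 37 °C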
T2 construct: expressed in transfected cells; host or cells: NIH-3T3, lentiviral transduction, puromycin selection
T2 sequence (P04626 with tags, fused parts or gaps INS775YVMA): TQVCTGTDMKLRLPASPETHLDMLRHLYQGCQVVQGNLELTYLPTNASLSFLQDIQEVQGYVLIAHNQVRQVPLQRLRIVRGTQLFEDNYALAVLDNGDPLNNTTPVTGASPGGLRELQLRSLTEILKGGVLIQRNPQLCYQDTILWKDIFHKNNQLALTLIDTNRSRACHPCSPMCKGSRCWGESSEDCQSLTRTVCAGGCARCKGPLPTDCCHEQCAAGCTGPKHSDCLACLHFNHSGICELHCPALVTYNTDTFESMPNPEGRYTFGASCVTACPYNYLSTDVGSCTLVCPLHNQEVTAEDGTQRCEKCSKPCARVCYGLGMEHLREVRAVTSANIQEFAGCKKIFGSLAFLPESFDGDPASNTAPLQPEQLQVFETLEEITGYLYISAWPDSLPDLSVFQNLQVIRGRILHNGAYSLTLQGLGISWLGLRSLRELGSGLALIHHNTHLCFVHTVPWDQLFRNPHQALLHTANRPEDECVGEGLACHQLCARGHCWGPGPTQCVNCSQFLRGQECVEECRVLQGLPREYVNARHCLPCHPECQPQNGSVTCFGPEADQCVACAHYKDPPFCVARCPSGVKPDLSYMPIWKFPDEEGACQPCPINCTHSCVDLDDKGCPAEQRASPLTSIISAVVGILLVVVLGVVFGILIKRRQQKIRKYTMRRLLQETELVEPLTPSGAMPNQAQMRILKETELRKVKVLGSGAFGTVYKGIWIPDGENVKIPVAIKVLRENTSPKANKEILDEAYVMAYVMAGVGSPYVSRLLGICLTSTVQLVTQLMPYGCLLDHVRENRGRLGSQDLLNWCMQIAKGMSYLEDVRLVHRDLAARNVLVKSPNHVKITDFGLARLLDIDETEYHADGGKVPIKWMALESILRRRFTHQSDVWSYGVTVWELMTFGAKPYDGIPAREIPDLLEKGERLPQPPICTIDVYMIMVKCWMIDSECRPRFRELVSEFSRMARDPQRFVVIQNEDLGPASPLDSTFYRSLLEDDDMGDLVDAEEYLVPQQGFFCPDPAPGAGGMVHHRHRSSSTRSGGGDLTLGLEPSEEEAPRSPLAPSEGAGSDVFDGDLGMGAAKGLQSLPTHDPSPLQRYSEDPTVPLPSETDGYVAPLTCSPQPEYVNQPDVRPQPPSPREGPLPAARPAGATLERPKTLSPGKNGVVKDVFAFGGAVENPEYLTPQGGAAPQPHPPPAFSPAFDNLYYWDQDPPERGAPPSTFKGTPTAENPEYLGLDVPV
Method: The resulting cell line expressed phosphorylated Her2 protein and its proliferation depended on the mutation gene, which could be used for in vitro PD and anti-proliferation assays.
(§1) One day before the test, WT or mutant cells were seeded in 96 well plates at appropriate concentrations with corresponding growth media supplemented with 1% FBS, and incubated overnight. The next day, tested compounds at a series of concentrations were added into each individual well of the plates, and the plates were incubated for 4 h at 37° C. with 5% CO2.
(§2) The EGFR (Y1068) phosphorylation level (activity) of cells in each well were then measured with MSD kit named “MULTI-SPOT®96 4-Spot HB Prototype EGFR Triplex [sequence]: pEGFR(Tyr1068),pEGFR(Tyr1173), Total EGFR” according to the manufacturer’s instruction (MESO SCALE DISCOVERY, Cat# N45ZB-1). The assay is an electrochemiluminescent method for determining both phosphorylated and total EGFR of cells with an MSD SECTOR® Imager and the ratio of p-EGFR/total EGFR can be generated by the machine. The Her2 (Y1248) phosphorylation level (activity) of cells in each well were measured with MSD Kit named “Phospho-ErbB2 (Tyr1248) Assay Whole Cell Lysate Kit” according to the manufacturer’s instruction (MESO SCALE DISCOVERY, Cat# K151CLD-3). The assay is an electrochemiluminescent method (MESO SCALE DISCOVERY) for determining both phosphorylated and total Her2 of cells with an MSD SECTOR® Imager and then the ratio of p-Her2/total Her2 can be generated by the machine.

WT EGFR = molecular target: T3, WT EGFR (Homo sapiens, UniProt P00533); assay: WT EGFR cellular phosphorylation inhibition in A-431 (hEGF stimulated, MSD); assay type: cell-based; conditions: A431 cells, 4 h compound, then 100 ng/ml hEGF 10 min;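 note: electrochemiluminescence read-out of EGFR Tyr1068 phosphorylation expressed as ratio to total EGFR, cells kept in medium with 1% FBS, compounds tested as a concentration series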
T3 construct: host or cells: A-431
T3 sequence (P00533 25-1210): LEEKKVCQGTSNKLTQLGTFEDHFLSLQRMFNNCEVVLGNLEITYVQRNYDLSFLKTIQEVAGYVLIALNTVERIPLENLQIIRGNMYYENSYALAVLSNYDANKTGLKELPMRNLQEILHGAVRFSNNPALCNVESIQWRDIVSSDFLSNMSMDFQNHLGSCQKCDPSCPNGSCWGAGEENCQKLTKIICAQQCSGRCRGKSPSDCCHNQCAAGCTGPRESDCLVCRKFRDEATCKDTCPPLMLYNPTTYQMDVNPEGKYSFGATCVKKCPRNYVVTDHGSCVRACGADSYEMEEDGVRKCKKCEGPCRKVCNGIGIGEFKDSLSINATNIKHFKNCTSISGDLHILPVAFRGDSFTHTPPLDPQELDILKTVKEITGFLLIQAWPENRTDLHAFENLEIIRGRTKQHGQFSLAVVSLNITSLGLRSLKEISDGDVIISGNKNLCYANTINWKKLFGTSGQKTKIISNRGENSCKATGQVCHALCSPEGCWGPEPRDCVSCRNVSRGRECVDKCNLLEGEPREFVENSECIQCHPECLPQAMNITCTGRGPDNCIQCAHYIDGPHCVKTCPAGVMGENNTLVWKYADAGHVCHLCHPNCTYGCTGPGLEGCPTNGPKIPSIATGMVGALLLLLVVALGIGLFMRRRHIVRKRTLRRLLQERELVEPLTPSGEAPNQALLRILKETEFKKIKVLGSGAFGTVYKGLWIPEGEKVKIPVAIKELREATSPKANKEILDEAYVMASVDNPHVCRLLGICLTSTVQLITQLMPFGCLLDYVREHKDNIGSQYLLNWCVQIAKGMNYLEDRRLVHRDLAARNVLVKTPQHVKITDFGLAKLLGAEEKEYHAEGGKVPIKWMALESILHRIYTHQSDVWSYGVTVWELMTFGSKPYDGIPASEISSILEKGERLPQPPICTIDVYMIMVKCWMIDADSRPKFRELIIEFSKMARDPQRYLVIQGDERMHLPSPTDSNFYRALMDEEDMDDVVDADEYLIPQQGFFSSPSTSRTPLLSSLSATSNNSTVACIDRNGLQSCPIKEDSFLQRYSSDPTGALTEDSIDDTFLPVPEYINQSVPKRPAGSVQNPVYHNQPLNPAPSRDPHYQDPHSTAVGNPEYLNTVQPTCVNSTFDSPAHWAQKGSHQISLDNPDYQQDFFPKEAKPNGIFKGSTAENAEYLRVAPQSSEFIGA
Method: as §1, §2

[4] = molecular target: T4, human EGFR exon 20 H773_V774insNPH (Homo sapiens, UniProt P00533, INS773NPH); assay: EGFR Exon20 NPH insertion cellular phosphorylation inhibition (MSD pEGFR Y1068/total EGFR); assay type: cell-based; conditions: Ba/F3 EGFR NPH ins cells, 4 h compound, p-EGFR(Y1068)/total EGFR;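 note: IL3-independent Ba/F3 cells with constitutively phosphorylated EGFR, compound exposure at 37 °C under 5% CO2, electrochemiluminescent MSD measurement of the p-EGFR to total EGFR ratio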
T4 construct: host or cells: Ba/F3
T4 sequence (P00533 with tags, fused parts or gaps INS773NPH): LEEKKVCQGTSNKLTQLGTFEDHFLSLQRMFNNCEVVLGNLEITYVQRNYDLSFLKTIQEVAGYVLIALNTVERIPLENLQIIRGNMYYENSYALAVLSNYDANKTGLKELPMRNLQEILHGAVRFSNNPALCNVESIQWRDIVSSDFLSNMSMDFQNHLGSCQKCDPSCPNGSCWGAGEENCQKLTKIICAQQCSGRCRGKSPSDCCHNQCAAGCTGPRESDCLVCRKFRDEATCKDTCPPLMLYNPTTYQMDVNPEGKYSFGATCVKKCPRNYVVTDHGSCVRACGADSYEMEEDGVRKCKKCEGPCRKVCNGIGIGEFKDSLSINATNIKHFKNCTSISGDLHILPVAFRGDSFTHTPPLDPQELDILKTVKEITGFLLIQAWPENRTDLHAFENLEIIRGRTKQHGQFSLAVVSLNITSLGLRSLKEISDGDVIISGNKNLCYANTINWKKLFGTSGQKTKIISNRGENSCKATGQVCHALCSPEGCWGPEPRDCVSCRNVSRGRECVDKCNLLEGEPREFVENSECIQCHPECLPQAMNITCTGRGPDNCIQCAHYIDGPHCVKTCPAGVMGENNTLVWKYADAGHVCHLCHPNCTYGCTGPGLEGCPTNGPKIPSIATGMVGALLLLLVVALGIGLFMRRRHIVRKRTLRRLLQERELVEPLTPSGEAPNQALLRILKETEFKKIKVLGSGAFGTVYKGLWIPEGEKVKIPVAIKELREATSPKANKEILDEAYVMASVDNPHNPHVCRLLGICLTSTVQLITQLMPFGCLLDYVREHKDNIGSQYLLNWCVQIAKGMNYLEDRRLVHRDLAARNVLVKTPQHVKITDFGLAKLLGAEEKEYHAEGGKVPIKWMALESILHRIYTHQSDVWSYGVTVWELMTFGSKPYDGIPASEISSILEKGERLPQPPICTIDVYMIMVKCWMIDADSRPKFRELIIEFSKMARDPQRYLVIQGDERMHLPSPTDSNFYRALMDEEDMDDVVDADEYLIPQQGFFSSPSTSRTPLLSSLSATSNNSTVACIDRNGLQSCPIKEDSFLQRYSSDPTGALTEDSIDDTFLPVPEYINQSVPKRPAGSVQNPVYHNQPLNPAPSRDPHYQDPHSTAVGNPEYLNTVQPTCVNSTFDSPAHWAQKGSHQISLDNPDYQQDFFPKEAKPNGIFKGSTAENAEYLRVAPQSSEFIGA

DB cells = assay: BTK (wt) cell proliferation, DB (CellTiter-Glo, 72 h); assay type: cell-based; conditions: Homo sapiens, DB, read-out: Non-BCR activated DB GI50;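 note: DB cells in 384-well plates given a dilution series of compound, viable cells read by ATP luminescence, growth expressed versus DMSO control after subtracting a time-zero plate reading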
Ba/F3 EGFR ASV ins cells = assay: Cell proliferation, Ba/F3 EGFR ASV ins (CellTiter-Glo, 72 h); assay type: cell-based; conditions: Ba/F3 EGFR, 72 h, read-out: EGFR Exon20 ASV insertion GI50 (nM);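 note: IL3-independent Ba/F3 cells transduced with EGFR V769_D770insASV, cellular ATP luminescence after compound exposure, growth relative to DMSO control with the day-0 baseline reading subtracted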
OCI-LY-10 cells = assay: BTK (wt) cell proliferation, OCI-LY-10 (CellTiter-Glo, 72 h); assay type: cell-based; conditions: Homo sapiens, OCI-Ly10, 72 h, read-out: BTK WT OCI-LY-10 GI50;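 note: viable cells quantified via cellular ATP luminescence, proliferation given as percent of DMSO control after subtracting a duplicate plate read at time of dosing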
[5] = system: Her2 exon 20 insertion YVMA transduced NIH-3T3 cell line; assay: Cell proliferation, Her2 YVMAins NIH-3T3 (CellTiter-Glo, 72 h); assay type: cell-based; conditions: Mus musculus, NIH3T3, 72 h, read-out: Her2 Exon 20 YVMA insertion GI50 (nM);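 note: viable cells quantified by ATP luminescence, growth over a day-zero baseline plate expressed as percent of DMSO control growth, compound dilution series in 10% FBS medium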
in vitro [6] = conditions: both, human, hepatocytes, human hepatocytes Clint (µL/min/10^6cells)
Method: The protocol for rat/human hepatocytes metabolic stability assay is employed to determine the clearance of the compounds of the present disclosure in vitro.
Rat hepatocytes in male gender and human hepatocytes in mixed gender were obtained from commercial vendors (e.g., BioreclamationIVT) and stored at -150° C. prior to use. 10 mM stock solutions of tested compounds were prepared in DMSO. Thawing medium and supplement incubation medium (serum-free) were placed in a 37° C. water bath for at least 15 minutes prior to use. Stock solutions were diluted to 100 µM by combining 198 µL acetonitrile and 2 µL of 10 mM stock solution.
Vials of cryopreserved hepatocytes were removed from storage, ensured that vials remain at cryogenic temperatures. The vials were thawed in a 37° C. water bath with gently shaking. Vials were kept in water bath until all ice crystals had dissolved and were no longer visible. Vials were sprayed with 70% ethanol before being transferred to a biosafety cabinet. And then the contents were poured into the 50 mL thawing medium conical tube. Vials were centrifuged at 100 g for 10 minutes at room temperature.
Cell viability and density were counted using a Trypan Blue exclusion, and then cells were diluted with serum-free incubation medium to a working cell density of 1 × 10^6 viable cells/ml. […] The inactivated hepatocytes were used to prepare negative samples, which were used to exclude the misleading factor that resulted from instability of chemical itself.
Aliquots of 247.5 µL hepatocytes were dispensed into each well of a 96-well non-coated plate. The plate was placed in the incubator on an orbital shaker for approximately 10 minutes. Aliquots of 2.5 µL of the 100 µM test compounds were added into respective wells of the non-coated 96-well plate to start the reaction. This assay was performed in duplicate. The plate was incubated in the incubator on an orbital shaker for the designed time points. […] Samples were centrifuges for 20 minutes at 4000 g and aliquots of 100 µL of the supernatants were used for LC-MS/MS analysis for measurement of test compounds
In vitro hepatocyte clearance was estimated based on determination of elimination half-life (T½) of compounds disappearance from their initial concentrations. Peak area ratios of each compound (test or control) to IS was calculated. Ln (%Control) versus Incubation Time (min) curve was plotted, and the slope of a linear fitting line was calculated.

Ri-1 cells = assay: BTK (wt) cell proliferation, Ri-1 (CellTiter-Glo, 72 h); assay type: cell-based; conditions: Ri-1, 72 h, read-out: BTK WT Ri-1 GI50;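 note: viable cells quantified as cellular ATP luminescence, proliferation normalized to a time-zero plate and the DMSO control, compounds tested across a dilution series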
[7] = molecular target: T5, human EGFR exon 20 V769_D770insASV (Homo sapiens, UniProt P00533, INS769ASV); assay: EGFR Exon20 ASV insertion cellular phosphorylation inhibition (MSD pEGFR Y1068/total EGFR); assay type: cell-based; conditions: Ba/F3 EGFR ASV ins cells, 4 h compound, p-EGFR(Y1068)/total EGFR;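 note: electrochemiluminescent readout on an MSD SECTOR Imager, IL3-independent transduced cells in medium with 1% FBS, compound concentration series at 37 °C and 5% CO2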
T5 construct: expressed in transfected cells; host or cells: Ba/F3 (DSMZ ACC-300), lentiviral transduction, puromycin selection, IL3 depletion
T5 sequence (P00533 with tags, fused parts or gaps INS769ASV): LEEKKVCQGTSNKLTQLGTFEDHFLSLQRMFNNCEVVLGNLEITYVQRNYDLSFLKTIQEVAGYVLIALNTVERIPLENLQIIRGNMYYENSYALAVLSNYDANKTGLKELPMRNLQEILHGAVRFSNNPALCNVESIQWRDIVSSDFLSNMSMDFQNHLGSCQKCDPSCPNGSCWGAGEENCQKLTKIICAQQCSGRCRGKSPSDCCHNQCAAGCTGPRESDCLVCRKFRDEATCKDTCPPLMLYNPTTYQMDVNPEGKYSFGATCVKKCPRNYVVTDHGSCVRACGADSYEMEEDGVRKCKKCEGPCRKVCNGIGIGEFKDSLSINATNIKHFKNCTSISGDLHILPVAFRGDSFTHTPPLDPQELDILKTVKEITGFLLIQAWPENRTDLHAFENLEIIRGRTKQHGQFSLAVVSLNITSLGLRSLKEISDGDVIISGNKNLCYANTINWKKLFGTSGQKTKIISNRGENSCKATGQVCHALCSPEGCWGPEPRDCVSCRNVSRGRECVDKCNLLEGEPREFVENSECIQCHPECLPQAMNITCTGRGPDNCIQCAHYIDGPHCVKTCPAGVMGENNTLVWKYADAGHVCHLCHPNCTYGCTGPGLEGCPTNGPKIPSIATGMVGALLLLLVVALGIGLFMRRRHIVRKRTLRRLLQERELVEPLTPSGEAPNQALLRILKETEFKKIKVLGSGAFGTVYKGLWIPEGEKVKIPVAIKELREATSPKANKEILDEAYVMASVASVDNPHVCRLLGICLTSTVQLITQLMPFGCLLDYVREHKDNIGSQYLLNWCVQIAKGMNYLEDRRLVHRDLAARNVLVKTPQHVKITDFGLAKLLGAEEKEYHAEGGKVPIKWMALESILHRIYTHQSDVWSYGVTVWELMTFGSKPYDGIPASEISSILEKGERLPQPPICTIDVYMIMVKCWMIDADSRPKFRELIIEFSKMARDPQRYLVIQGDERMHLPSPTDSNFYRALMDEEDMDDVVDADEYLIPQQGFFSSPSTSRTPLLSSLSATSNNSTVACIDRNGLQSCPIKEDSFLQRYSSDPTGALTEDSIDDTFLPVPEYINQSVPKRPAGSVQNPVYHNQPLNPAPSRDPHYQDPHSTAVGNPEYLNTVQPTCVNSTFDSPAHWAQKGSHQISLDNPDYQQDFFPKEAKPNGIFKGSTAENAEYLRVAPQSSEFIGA
Method: To generate the EGFR exon 20 V769_D770insASV transduced Ba/F3 cell line, the parental Ba/F3 cells were infected with the recombinant EGFR V769_D770insASV lentivirus and then followed by 1 µg/ml of puromycin selection and IL3 depletion. The resulting cell line expresses constitutively phosphorylated EGFR protein and proliferates in the absence of IL3, which could be used for in vitro PD and anti-proliferation assays.
as §1, §2

Work on C=CC(=O)Nc1cc(Nc2ncnc(Nc3cc(Cl)c(F)cc3C(C)(O)CC)n2)c(OC)cc1N1CC[C@@H](N(C)C)C1 (stereo partly drawn) [Compound 59, N-(5-(4-(5-chloro-4-fluoro-2-(2-hydroxybutan-2-yl)phenylamino)-1,3,5-triazin-2-ylamino)-2-((R)-3-(dimethylamino)pyrrolidin-1-yl)-4-methoxyphenyl) acrylamide] yielded a GI50 (WT EGFR cell line A-431) of 10.7 nM, a GI50 [1] of 2 nM and a GI50 (Ba/F3 EGFR NPH ins cells) of 29.1 nM. For the same compound, the hepatocyte CLint at 1 µM (in vitro [2]) was 14.1 µL/min/1e6 cells, the IC50 (EGFR L858R&T790M) was 0.5 nM and the GI50 (TMD-8 cells) was 4.78 nM. The IC50 [3] was 3.5 nM, the IC50 (WT EGFR) was 25.7 nM and the IC50 [4] was 16.4 nM. The GI50 (DB cells) was > 3000 nM, the GI50 (Ba/F3 EGFR ASV ins cells) was 29.8 nM and the GI50 (OCI-LY-10 cells) was 17.1 nM. For the same compound, the GI50 [5] was 62.2 nM, the hepatocyte CLint at 1 µM (in vitro [6]) was 3.75 µL/min/1e6 cells and the GI50 (Ri-1 cells) was 26.9 nM. It also gave an IC50 [7] of 13.3 nM.
